Measured values as given in US20140005197A1, “INHIBITORS OF INFLUENZA VIRUSES REPLICATION” (Vertex Pharmaceuticals Incorporated, priority 2010, published 2014).
Like-named read-outs stand apart in the source and are kept apart here.

How the values were obtained:
[1] = tested on: influenza A virus (A/PR/8/34); assay: microbe, parasite or virus in culture; type: cell-based
influenza A virus = assay: microbe, parasite or virus in culture; type: cell-based
influenza = assay: Influenza Therapeutic Mouse Model; type: in vivo; settings: Balb/c mice, 30 mg/kg BID × 10 days, dosing @ 48 hours post infection
[2] = Influenza A virus, PR/8, MDCK, 72 h, read-out: Flu, MDCK IC50
[3] = Influenza A virus, viral RNA 50% of control wells, 18-36 hours, mean all, read-out: bDNA EC50
[4] = Influenza A virus, PR/8, MDCK, MDCK cells, A/PR/8/34, CPE assay, read-out: IC50
[5] = Influenza A virus, bDNA viral RNA assay, read-out: EC50
[6] = viral RNA 50% of control wells, 18-36 hours, mean all, read-out: bDNA EC50

O=C(O)[C@H]1C2CCC(CC2)[C@@H]1Nc1nc(-c2n[nH]c3ncc(Cl)cc23)c(F)cc1F (racemic) [Compound I-6, (2S,3S)-3-((6-(5-chloro-1H-pyrazolo[3,4-b]pyridin-3-yl)-3,5-difluoropyridin-2-yl)-amino)bicyclo[2.2.2]octane-2-carboxylate]
IC50 [1, 2]: < 3.3 µM
EC50 (influenza A virus; [3]): < 3.3 µM

O=C(O)[C@H]1C2CCC(CC2)[C@@H]1Nc1cncc(-c2n[nH]c3ncc(F)cc23)n1 (racemic) [Compound I-9, (+/−)-trans-(2,3)-3-((6-(5-fluoro-1H-pyrazolo[3,4-b]pyridin-3-yl)pyrazin-2-yl)amino)bicyclo[2.2.2]octane-2-carboxylic acid]
IC50 [1, 2]: < 3.3 µM
IC50 [1, 4]: 0.017 µM
EC50 (influenza A virus; [5]): 0.034 µM
EC50 (influenza A virus; [3]): < 3.3 µM

N#Cc1cc(F)c(N[C@H]2C3CCC(CC3)[C@@H]2C(=O)O)nc1-c1n[nH]c2ncc(F)cc12 (racemic) [Compound I-12]
IC50 [1, 2]: < 3.3 µM
EC50 (influenza A virus; [3]): < 3.3 µM

O=C(O)C1C2CCC(CC2)C1Nc1cnnc(-c2n[nH]c3ncc(F)cc23)n1 (racemic) [Compound I-17, (+/−)-trans-3-((3-(5-fluoro-1H-pyrazolo[3,4-b]pyridin-3-yl)-1,2,4-triazin-5-yl)amino)bicyclo[2.2.2]octane-2-carboxylic acid]
IC50 [1, 2]: < 3.3 µM
EC50 (influenza A virus; [3]): < 3.3 µM

N#Cc1cc(F)c(NC2C3CCC(CC3)C2C(=O)O)cc1-c1n[nH]c2ncc(F)cc12 (racemic) [Compound I-21, (+/−)-trans-3-((4-cyano-2-fluoro-5-(5-fluoro-1H-pyrazolo[3,4-b]pyridin-3-yl)phenyl)amino)bicyclo[2.2.2]octane-2-carboxylic acid]
IC50 [1, 2]: < 3.3 µM
EC50 (influenza A virus; [3]): < 3.3 µM

O=C(O)[C@H]1C2CCC(CC2)[C@@H]1Nc1nc(-c2n[nH]c3ncc(F)cc23)c(F)cc1F (stereo in doubt) [Compound I-5]
IC50 [1, 2]: < 3.3 µM
EC50 (influenza A virus; [3]): < 3.3 µM

O=C(O)[C@H]1C2CCC(CC2)[C@@H]1Nc1nc(-c2n[nH]c3ncc(F)cc23)ccc1F (stereo in doubt) [Compound I-7]
IC50 [1, 2]: < 3.3 µM
EC50 (influenza A virus; [3]): < 3.3 µM

CCOC(=O)[C@@H]1CCC[C@H](Nc2nc(-c3n[nH]c4ncc(F)cc34)c(F)cc2F)C1 [Compound I-1, (1R,3S)-ethyl 3-(3,5-difluoro-6-(5-fluoro-1H-pyrazolo[3,4-b]pyridin-3-yl)pyridin-2-ylamino)cyclohexanecarboxylate]
IC50 [1, 2]: < 3.3 µM
EC50 (influenza A virus; [3]): < 3.3 µM

O=C(O)[C@@H]1CCC[C@H](Nc2nc(-c3n[nH]c4ncc(F)cc34)c(F)cc2F)C1 [Compound I-2, (1R,3S)-3-(3,5-difluoro-6-(5-fluoro-1H-pyrazolo[3,4-b]pyridin-3-yl)pyridin-2-ylamino)cyclohexanecarboxylic acid]
IC50 [1, 2]: < 3.3 µM
EC50 (influenza A virus; [3]): < 3.3 µM

Cn1cnc(C(=O)N[C@@H]2CCC[C@H](Nc3nc(-c4n[nH]c5ncc(F)cc45)c(F)cc3F)C2)c1 [Compound I-3, N-((1R,3S)-3-(3,5-difluoro-6-(5-fluoro-1H-pyrazolo[3,4-b]pyridin-3-yl)pyridin-2-ylamino)cyclohexyl)-1-methyl-1H-imidazole-4-carboxamide]
IC50 [1, 2]: < 3.3 µM
EC50 (influenza A virus; [3]): < 3.3 µM

O=C(O)[C@H]1C2CCC(CC2)[C@@H]1Nc1nc(-c2n[nH]c3ncc(F)cc23)c(F)cc1F [Compound I-8, sodium (2S,3S)-3-(3,5-difluoro-6-(5-fluoro-1H-pyrazolo[3,4-b]pyridin-3-yl)pyridin-2-ylamino)bicyclo[2.2.2]octane-2-carboxylate]
WBP (Penh; Day 6) (influenza; Whole Body Plethysmography, study day 6/7): 2.03
Percent Weight Loss (Day 8) (influenza; post challenge day 8): 20.8%
Percent Survival (influenza; survival scored for 21 days): 100%
IC50 [1, 4]: 3.57 µM
EC50 (influenza A virus; [5]): 0.007 µM
EC50 (influenza A virus; [6]): < 3.3 µM

O=C(O)[C@@H]1C2CCC(CC2)[C@H]1Nc1nc(-c2n[nH]c3ncc(F)cc23)ccc1F [Compound I-10]
EC50 (influenza A virus; [3]): < 3.3 µM

O=C(O)[C@H]1C2CCC(CC2)[C@@H]1Nc1nc(-c2n[nH]c3ncc(F)cc23)ccc1F [Compound I-11, (2S,3S)-3-(3-fluoro-6-(5-fluoro-1H-pyrazolo[3,4-b]pyridin-3-yl)pyridin-2-ylamino)bicyclo[2.2.2]octane-2-carboxylic acid]
IC50 ([1]; read-out: Flu, MDCK IC50): < 3.3 µM
EC50 (influenza A virus; [6]): < 3.3 µM

O=C(O)[C@@H]1C2CCC(CC2)[C@H]1Nc1cncc(-c2n[nH]c3ncc(F)cc23)n1 [Compound I-13, (2R,3R)-3-((6-(5-fluoro-1H-pyrazolo[3,4-b]pyridin-3-yl)pyrazin-2-yl)amino)bicyclo-[2.2.2]octane-2-carboxylic acid]
IC50 [1, 2]: < 3.3 µM
EC50 (influenza A virus; [3]): < 3.3 µM

O=C(O)[C@H]1C2CCC(CC2)[C@@H]1Nc1cncc(-c2n[nH]c3ncc(F)cc23)n1 [Compound I-14, (2S,3S)-3-((6-(5-fluoro-1H-pyrazolo[3,4-b]pyridin-3-yl)pyrazin-2-yl)amino)bicyclo-[2.2.2]octane-2-carboxylic acid]
IC50 [1, 2]: < 3.3 µM
EC50 (influenza A virus; [3]): < 3.3 µM

N#Cc1cc(F)c(N[C@H]2C3CCC(CC3)[C@@H]2C(=O)O)nc1-c1n[nH]c2ncc(F)cc12 [Compound I-15, (2S,3S)-3-((5-cyano-3-fluoro-6-(5-fluoro-1H-pyrazolo[3,4-b]pyridin-3-yl)pyridin-2-yl)amino)bicyclo[2.2.2]octane-2-carboxylic acid]
IC50 [1, 2]: < 3.3 µM
EC50 (influenza A virus; [3]): < 3.3 µM

N#Cc1cc(F)c(N[C@@H]2C3CCC(CC3)[C@H]2C(=O)O)nc1-c1n[nH]c2ncc(F)cc12 [Compound I-16]
IC50 [1, 2]: < 3.3 µM
EC50 (influenza A virus; [3]): < 3.3 µM

O=C(N[C@@H]1CCC[C@H](Nc2nc(-c3n[nH]c4ncc(F)cc34)c(F)cc2F)C1)c1csc(Cl)c1 [Compound I-18, 5-chloro-N-((1R,3S)-3-((3,5-difluoro-6-(5-fluoro-1H-pyrazolo[3,4-b]pyridin-3-yl)pyridin-2-yl)amino)cyclohexyl)thiophene-3-carboxamide]
IC50 [1, 2]: < 3.3 µM
EC50 (influenza A virus; [3]): < 3.3 µM

O=C(N[C@@H]1CCC[C@H](Nc2nc(-c3n[nH]c4ncc(F)cc34)c(F)cc2F)C1)c1ccsc1 [Compound I-19, N-((1R,3S)-3-((3,5-difluoro-6-(5-fluoro-1H-pyrazolo[3,4-b]pyridin-3-yl)pyridin-2-yl)amino)cyclohexyl)thiophene-3-carboxamide]
IC50 [1, 2]: < 3.3 µM
EC50 (influenza A virus; [3]): < 3.3 µM

N#Cc1cc(F)c(N[C@H]2C3CCC(CC3)[C@@H]2C(=O)O)cc1-c1n[nH]c2ncc(F)cc12 [Compound I-20]
IC50 ([1]; read-out: Flu, MDCK IC50): < 3.3 µM
EC50 (influenza A virus; [6]): < 3.3 µM
